Assay results taken from ChEMBL document CHEMBL1124722, “Synthesis and anticonvulsant activity of 2-benzylglutarimides” (J Med Chem, 1990).
Active and inactive are the calls of the source. No cut-off for these calls is given here.

Experiments:
Mus musculus [1] = experiment: Anticonvulsant activity against maximal electroshock induced seizures (MES) after 0.5 h; Not active up to 300 mg/kg; type: functional, organism-based; design: dose 300 mg/kg
Mus musculus [2] = experiment: Anticonvulsant activity against subcutaneous administered Metrazol induced seizures (scMET) after 0.5 hr; Not active up to 300 mg/kg; type: functional, organism-based; design: dose 300 mg/kg
Mus musculus [3] = experiment: The Neurologic toxicity by measuring rotarod test after 4 hr; Not active up to 300 mg/kg; type: organism-based; design: dose 300 mg/kg; conditions: in vivo
Mus musculus [4] = experiment: The Neurologic toxicity by measuring rotarod test after 0.5 h; Not active up to 300 mg/kg; type: organism-based; design: dose 300 mg/kg; conditions: in vivo
Mus musculus [5] = experiment: Anticonvulsant activity against maximal electroshock induced seizures after 4 hr; Not active up to 300 mg/kg.; type: functional, organism-based; design: dose 300 mg/kg
Mus musculus [6] = experiment: Anticonvulsant activity against subcutaneous administered Metrazol induced seizures (scMET) after 4 hr; Not active up to 300 mg/kg; type: functional, organism-based; design: dose 300 mg/kg
Mus musculus [7] = experiment: Anticonvulsant activity against subcutaneous administered Metrazol induced seizures (scMET) after 0.5 hr at 300 mg/kg; Active; type: functional, organism-based; design: dose 300 mg/kg
[8] = Protective index was calculated (TD50/ED50) in scMET assay in mice after intraperitoneal administration; type: functional
Mus musculus [9] = species: Mus musculus; experiment: Time of peak effect was determined for activity in MES; type: functional; design: unit not given here
Mus musculus [10] = experiment: The effective dose of compound was tested against subcutaneous administered Metrazol induced seizures after intraperitoneal administration; type: functional
Mus musculus [11] = species: Mus musculus; experiment: Time of peak effect was determined for toxicity; type: organism-based; design: unit not given here; conditions: in vivo
[12] = Protective index was calculated (TD50/ED50) in MES assay in mice after intraperitoneal administration; type: functional
Mus musculus [13] = experiment: Anticonvulsant activity against maximal electroshock induced seizures (MES) after 0.5 hr at 100 mg/kg; Active; type: functional, organism-based; design: dose 100 mg/kg
Mus musculus [14] = experiment: Anticonvulsant activity against subcutaneous administered Metrazol induced seizures (scMET) after 4 hr at 100 mg/kg; Active; type: functional, organism-based; design: dose 100 mg/kg
[15] = The cytotoxicity after intraperitoneal administration; type: organism-based; conditions: mouse, in vivo, ip
Mus musculus [16] = experiment: The effective dose of compound was tested against maximal electroshock induced seizures after intraperitoneal administration; type: functional; conditions: ip
Mus musculus [17] = experiment: The compound was tested for anticonvulsant activity against (subcutaneous administered) Metrazol induced seizures after intraperitoneal administration; type: functional
Mus musculus [18] = species: Mus musculus; experiment: (§1) Time of peak effect activity against maximal electroshock induced seizures; type: ADME, organism-based; conditions: in vivo
Mus musculus [19] = experiment: The effective dose of compound was tested against maximal electroshock induced seizures after oral administration in mice.; type: functional
Mus musculus [20] = experiment: The effective dose of compound was tested against maximal electroshock induced seizures after intraperitoneal administration.; type: functional; conditions: ip
Mus musculus [21] = species: Mus musculus; experiment: Time of peak effect toxicity against maximal electroshock induced seizures; type: organism-based; conditions: in vivo
[22] = Median lethal dose was measured after 24 hr.; type: organism-based; conditions: mouse, in vivo
Mus musculus [23] = experiment: The effective dose of compound was tested against subcutaneous administered Metrazol induced seizures in mice; type: functional; conditions: sc
Mus musculus [24] = species: Mus musculus; experiment: Median hypnotic dose by loss of righting reflex.; type: functional
Rattus norvegicus [25] = experiment: The effective dose of compound was tested against maximal electroshock induced seizures after oral administration in rat.; type: functional
Mus musculus [26] = experiment: The effective dose of compound was tested against subcutaneous administered Metrazol induced seizures after intraperitoneal administration.; type: functional
Rattus norvegicus [27] = experiment: The effective dose of compound was tested against subcutaneous administered Metrazol induced seizures in rat.; type: functional; conditions: sc
Mus musculus [28] = experiment: The effective dose of compound was tested against subcutaneous administered Metrazol induced seizures after intraperitoneal administration;NE=Not effective; type: functional, organism-based
Mus musculus [29] = species: Mus musculus; experiment: as §1; type: functional
Rattus norvegicus [30] = experiment: The effective dose of compound was tested against subcutaneous administered Metrazol induced seizures in rat; NE=Not effective; type: functional, organism-based
[31] = The cytotoxicity after intraperitoneal administration in rat.; type: organism-based; conditions: in vivo, ip
Mus musculus [32] = experiment: Anticonvulsant activity against subcutaneous administered Metrazol induced seizures (scMET) after 0.5 hr at 30 mg/kg; Active; type: functional, organism-based; design: dose 30 mg/kg
Mus musculus [33] = experiment: Anticonvulsant activity against subcutaneous administered Metrazol induced seizures (scMET) after 4 hr at 300 mg/kg; Active; type: functional, organism-based; design: dose 300 mg/kg
Mus musculus [34] = experiment: The effective dose of compound was tested against maximal electroshock induced seizures after intraperitoneal administration; no protection up to 1050 mg/kg; type: functional, organism-based; design: dose 1050 mg/kg
Mus musculus [35] = experiment: Anticonvulsant activity against subcutaneous administered Metrazol induced seizures (scMET) after 0.5 hr at 100 mg/kg; Active; type: functional, organism-based; design: dose 100 mg/kg
Mus musculus [36] = experiment: The effective dose of compound was tested against maximal electroshock induced seizures after oral administration in mice; type: functional
Mus musculus [37] = species: Mus musculus; experiment: Median hypnotic dose by loss of righting reflex; type: functional
Mus musculus [38] = species: Mus musculus; experiment: Median lethal dose was measured after 24 hr; type: functional
Mus musculus [39] = experiment: The compound was tested for anticonvulsant activity against (subcutaneous administered) strychnine induced seizures after intraperitoneal administration; type: functional
Mus musculus [40] = experiment: The Neurologic toxicity by measuring rotarod test after 0.5 h up to 300 mg/kg; type: functional, organism-based; design: dose 300 mg/kg
Mus musculus [41] = experiment: Anticonvulsant activity against subcutaneous administered Metrazol induced seizures (scMET) after 4 hr up to 300 mg/kg; type: functional, organism-based; design: dose 300 mg/kg
Mus musculus [42] = experiment: Anticonvulsant activity against maximal electroshock induced seizures (MES) after 0.5 hr at 300 mg/kg; Active; type: functional, organism-based; design: dose 300 mg/kg
Mus musculus [43] = experiment: The Neurologic toxicity by measuring rotarod test after 4 hr up to 300 mg/kg; type: functional, organism-based; design: dose 300 mg/kg

O=C1CCC(Cc2ccc(-c3ccccc3)cc2)C(=O)N1 (stereo not drawn)
Activity (Mus musculus [1]): inactive | Activity (Mus musculus [2]): inactive | Toxicity (Mus musculus [3]): Not Active | Toxicity (Mus musculus [4]): Not Active | Activity (Mus musculus [5]): inactive | Activity (Mus musculus [6]): inactive

CN1C(=O)CCC(Cc2ccccc2Br)C1=O (stereo not drawn)
Activity (Mus musculus [7]): Active | Ratio [8]: 2.41 | TPE (Mus musculus [9]): 1 | ED50 (Mus musculus [10]): 256 mg/kg | Toxicity (Mus musculus [3]): Not Active | Toxicity (Mus musculus [4]): Not Active | Activity (Mus musculus [5]): inactive | TPE (Mus musculus [11]): 0.5 | Ratio [12]: 1.3 | Activity (Mus musculus [13]): Active | Activity (Mus musculus [14]): Active | TD50 [15]: 617 mg/kg | ED50 (Mus musculus [16]): 474 mg/kg

CCC1(C)CC(=O)NC1=O (stereo not drawn) [ETHOSUXIMIDE]
ED50 (Mus musculus [17]): 130 mg/kg | Activity (Mus musculus [18]): 0.5 | ED50 (Mus musculus [19]): > 2000 mg/kg | ED50 (Mus musculus [20]): > 1000 mg/kg | Time of peak effect (Mus musculus [21]): 0.5 | LD50 at 24 h [22]: 1750 mg/kg | ED50 (Mus musculus [23]): 192 mg/kg | HD50 (Mus musculus [24]): 850.61 mg/kg | ED50 (Rattus norvegicus [25]): > 1200 mg/kg | ED50 (Mus musculus [26]): 130 mg/kg | ED50 (Rattus norvegicus [27]): 54 mg/kg

O=C1NC(=O)C(c2ccccc2)(c2ccccc2)N1 [PHENYTOIN]
TPE (Mus musculus [9]): 2 | ED50 (Mus musculus [28]): inactive | TPE (Mus musculus [11]): 2 | Activity (Mus musculus [29]): 2 h | ED50 (Rattus norvegicus [30]): inactive | Time of peak effect (Mus musculus [21]): 2 h | TD50 [31]: > 3000 mg/kg | LD50 at 24 h [22]: 230 mg/kg | HD50 (Mus musculus [24]): 178.34 mg/kg

CN1C(=O)CCC(Cc2ccc(I)cc2)C1=O (stereo not drawn)
Activity (Mus musculus [1]): inactive | Toxicity (Mus musculus [3]): Not Active | Toxicity (Mus musculus [4]): Not Active | Activity (Mus musculus [5]): inactive | Activity (Mus musculus [32]): Active | Activity (Mus musculus [33]): Active

CN1C(=O)CCC(Cc2ccc(Cl)cc2Cl)C1=O (stereo not drawn)
Ratio [8]: 4.24 | Activity (Mus musculus [1]): inactive | TPE (Mus musculus [9]): 0.5 | ED50 (Mus musculus [34]): no protection up to 1050 mg/kg | ED50 (Mus musculus [10]): 153 mg/kg | Toxicity (Mus musculus [3]): Not Active | Toxicity (Mus musculus [4]): Not Active | Activity (Mus musculus [5]): inactive | TPE (Mus musculus [11]): 2 | Activity (Mus musculus [35]): Active | Activity (Mus musculus [14]): Active | TD50 [15]: 650 mg/kg

O=C1CCC(Cc2ccc(Cl)c(Cl)c2)C(=O)N1 (stereo not drawn)
Activity (Mus musculus [1]): inactive | Activity (Mus musculus [2]): inactive | Toxicity (Mus musculus [3]): Not Active | Toxicity (Mus musculus [4]): Not Active | Activity (Mus musculus [5]): inactive | Activity (Mus musculus [6]): inactive

CCCC(CCC)C(=O)O [VALPROIC ACID]
ED50 (Mus musculus [17]): 149 mg/kg | ED50 (Mus musculus [36]): 665 mg/kg | ED50 (Mus musculus [10]): 149 mg/kg | HD50 (Mus musculus [37]): 885.53 mg/kg | Activity (Mus musculus [29]): 0.25 | Time of peak effect (Mus musculus [21]): 0.25 | ED50 (Mus musculus [23]): 388 mg/kg | LD50 (Mus musculus [38]): 1100 mg/kg | ED50 (Mus musculus [39]): 293 mg/kg | ED50 (Mus musculus [16]): 272 mg/kg | ED50 (Rattus norvegicus [27]): 180 mg/kg

O=C1CCC(Cc2ccccc2)C(=O)N1 (stereo not drawn)
Toxicity (Mus musculus [40]): inactive | Activity (Mus musculus [2]): inactive | Activity (Mus musculus [5]): inactive | Activity (Mus musculus [41]): inactive | Activity (Mus musculus [42]): Active | Toxicity (Mus musculus [43]): inactive

CN1C(=O)CCC(Cc2ccc(Br)cc2)C1=O (stereo not drawn)
Ratio [8]: 3.72 | TPE (Mus musculus [9]): 1 | ED50 (Mus musculus [10]): 143 mg/kg | Toxicity (Mus musculus [3]): Not Active | Toxicity (Mus musculus [4]): Not Active | Activity (Mus musculus [5]): inactive | TPE (Mus musculus [11]): 1.5 | Activity (Mus musculus [42]): Active | Ratio [12]: 3.8 | Activity (Mus musculus [6]): inactive | Activity (Mus musculus [35]): Active | TD50 [15]: 534 mg/kg | ED50 (Mus musculus [16]): 162 mg/kg

CN1C(=O)CCC(Cc2ccccc2)C1=O (stereo not drawn)
Activity (Mus musculus [1]): inactive | Toxicity (Mus musculus [3]): Not Active | Toxicity (Mus musculus [4]): Not Active | Activity (Mus musculus [5]): inactive | Activity (Mus musculus [6]): inactive
